This note sets out measurements from patent US5620676A, “Biologically active ATP analogs” (priority 1995, dated 1997).

“Also recorded” adds a separate entry of the source.

In one test the test system is P2X and P2Y receptors. As to the kind of experiment: Overall activity in the seven P2X and P2Y preparations.
In another test the test system is P2Y receptors. As to the kind of experiment: Overall activity in P2Y receptor systems. An outline of the steps: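 Phospholipase C: [3H]inositol-labeled turkey erythrocyte ghosts were incubated with nucleotide analogs plus 1 μM GTPγS, pH 7.0, 5 min at 30° C; [3H]inositol phosphates were quantified after anion exchange, and K0.5 was averaged from 3-8 dose-response curves. P2Y relaxation was tested in guinea pig taenia coli and rabbit aorta and mesenteric artery; P2X contraction in guinea pig bladder and vas deferens and rabbit saphenous artery.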

Consider `N#CCCCCCCSc1nc(N)c2ncn([C@@H]3O[C@H](COP(=O)(O)OP(=O)(O)OP(=O)(O)O)[C@@H](O)[C@H]3O)c2n1` [2-(6-Cyanohexylthio)-ATP, 2-(6-Cyanohexylthio)adenosine-5'-triphosphate], for which the “overall activity in words, all preparations” value in the test with P2X and P2Y receptors is listed as “more potent than ATP in all systems except the P2X system of the saphenous artery”. The “overall activity in words, P2Y systems” value is on record as “by far the most potent agonist in several P2Y receptor preparations” with P2Y receptors (listed as 2-(6-cyanohexyl)thio ATP) and “the most potent compound in all of the P2Y receptor assays; also recorded: nanomolar potency” with P2Y receptors (listed as 2-(6-cyanohexylthio)-ATP).
